Experimental data taken from patent publication US20050192279A1, “Pyridazinones as antagonists of alpha4 integrins” (priority 2004, published 2005).

Key:
α4β1 = target: T1, α4β1 (Homo sapiens, UniProt P05556+P13612); test: Ramos Cell Adhesion Assay (α4β1 Mediated Adhesion/VCAM-1); format: cell-based; conditions: Ramos cell adhesion to hVCAM-1; read-out: α4β1 IC50
T1 construct: Ramos Cell Adhesion Assay (α4β1 Mediated Adhesion/VCAM-1); endogenous in cells; host or cells: Ramos cells
Summary of the method: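 Plates coated overnight at 4° C with recombinant hVCAM-1 at 4.0 μg/mL, pH 9.0, then blocked in PBS/1% BSA. Calcein AM-labeled Ramos cells added with compounds and left to adhere 1 h at room temperature; after washing, cells lysed in 1 M Tris pH 8.0/1% SDS.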

TNBS induced colitis = test: Trinitrobenzenesulfonic acid (TNBS) Induced Colitis, rats; format: in vivo, Male Wistar rats; conditions: 30 mg/kg po bid, rat
Source text: In Vivo Model: Trinitrobenzenesulfonic acid (TNBS) Induced Colitis The TNBS model of experimental colitis (Bobin-Dubigeon, C., Collin, X., Grimaud, N., Robert, J-M., Guillaume Le Baut, G., and Petit, J-Y. Effects of tumour necrosis factor-a synthesis inhibitors on rat trinitrobenzene sulphonic acid-induced chronic colitis. Eur. J. […] These symptomatic signs in the above—mentioned models are similar to what occur in human colitis. Male Wistar rats (200-250 g) are inoculated with 500 microliters of a solution of 10 to 20 mg of TNBS in 30% ethanol delivered intracolonically via catheter or ball-tipped gavage needle to the 8th cm from the anus. When Balb/c female mice (8-12 weeks of age) were used, the inoculation volume was 50 microliters containing 2-3 mg of TNBS in 30% ethanol delivered intracolonically via catheter or ball-tipped gavage needle to the 4th cm from the anus. During the ensuing 7 days, test animals were administered a preparation of an experimental compound. This material may be administered orally, subcutaenously or intraperitoneally, once or twice daily. At the end of this period, the animals were euthanized and their colons were collected for further analysis. Among the parameters analyzed were the length of the colon starting from the anus to the top of the cecum, the weight of the colon, the consistency of any stools found within the colon, the presence or absence of intraperitoneal adhesions on the serosal surfacr of the intestin, and the gross macroscopic appearance of the colon. […] In rats, the distal colon between the 5th and the 8th centimeter is dissected and placed in 10% neutral buffered formalin for later histological analysis. In mice, the 1st to the 4th cm was collected for histological analyses. For the following parameters—colon length, colon weight, stool consistency and appearance and macroscopic damage—a scoring system was used to describe the changes. The four scores for each animal were added to provide a Total Score. […] For the presence of blood in stool, one point was added to scores <3. […] Histological analyses of tissues consisted of staining paraffin-embedded tissue sections with hematoxylin-eosin dye. Epithelial damage scores were determined as the fraction of the tissue section showing damaged epithelium. […] Statistic analyses for these experiments performed with Graphpad Prism 4.0, using ANOVA, with Dunnets or Bonferroni's multiple comparisons test.

human α4β7 integrin = target: T2, human α4β7 integrin (Homo sapiens, UniProt P13612+P26010); test: α4β7-K562 Cell Adhesion Assay (α4β7 Mediated Adhesion/MAdCAM-1); format: cell-based; conditions: α4β7-K562 cell adhesion to hMAdCAM-1; read-out: α4β7 IC50
T2 construct: expressed in transfected cells; host or cells: K562 cells, stably transfected
T2 sequence (P13612 34-1032): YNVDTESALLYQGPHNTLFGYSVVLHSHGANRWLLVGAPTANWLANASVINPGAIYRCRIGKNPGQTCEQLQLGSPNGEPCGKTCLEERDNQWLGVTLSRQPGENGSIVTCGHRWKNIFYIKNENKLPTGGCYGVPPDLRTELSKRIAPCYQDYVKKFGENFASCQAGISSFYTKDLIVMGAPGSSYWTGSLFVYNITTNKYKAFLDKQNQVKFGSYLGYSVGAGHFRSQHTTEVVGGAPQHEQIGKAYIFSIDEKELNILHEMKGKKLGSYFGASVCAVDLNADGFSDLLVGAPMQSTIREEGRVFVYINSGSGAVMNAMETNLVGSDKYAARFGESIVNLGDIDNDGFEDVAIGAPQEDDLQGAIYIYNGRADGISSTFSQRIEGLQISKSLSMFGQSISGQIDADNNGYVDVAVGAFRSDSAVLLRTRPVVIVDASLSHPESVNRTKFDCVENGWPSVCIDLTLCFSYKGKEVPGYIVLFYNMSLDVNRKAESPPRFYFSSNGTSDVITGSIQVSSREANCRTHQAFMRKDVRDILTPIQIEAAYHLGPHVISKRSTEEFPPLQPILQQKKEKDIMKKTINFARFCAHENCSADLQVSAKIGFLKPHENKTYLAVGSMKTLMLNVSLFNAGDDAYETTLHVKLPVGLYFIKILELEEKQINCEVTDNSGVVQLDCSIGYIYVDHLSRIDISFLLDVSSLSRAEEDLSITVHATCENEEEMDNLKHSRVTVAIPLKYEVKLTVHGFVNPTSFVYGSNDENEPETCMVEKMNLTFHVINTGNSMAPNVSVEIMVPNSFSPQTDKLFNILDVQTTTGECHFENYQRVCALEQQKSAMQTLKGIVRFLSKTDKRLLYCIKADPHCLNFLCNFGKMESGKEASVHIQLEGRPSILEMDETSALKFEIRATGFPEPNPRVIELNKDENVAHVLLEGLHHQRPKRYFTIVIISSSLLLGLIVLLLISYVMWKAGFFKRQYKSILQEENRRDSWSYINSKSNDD
T2 sequence (P26010 20-798): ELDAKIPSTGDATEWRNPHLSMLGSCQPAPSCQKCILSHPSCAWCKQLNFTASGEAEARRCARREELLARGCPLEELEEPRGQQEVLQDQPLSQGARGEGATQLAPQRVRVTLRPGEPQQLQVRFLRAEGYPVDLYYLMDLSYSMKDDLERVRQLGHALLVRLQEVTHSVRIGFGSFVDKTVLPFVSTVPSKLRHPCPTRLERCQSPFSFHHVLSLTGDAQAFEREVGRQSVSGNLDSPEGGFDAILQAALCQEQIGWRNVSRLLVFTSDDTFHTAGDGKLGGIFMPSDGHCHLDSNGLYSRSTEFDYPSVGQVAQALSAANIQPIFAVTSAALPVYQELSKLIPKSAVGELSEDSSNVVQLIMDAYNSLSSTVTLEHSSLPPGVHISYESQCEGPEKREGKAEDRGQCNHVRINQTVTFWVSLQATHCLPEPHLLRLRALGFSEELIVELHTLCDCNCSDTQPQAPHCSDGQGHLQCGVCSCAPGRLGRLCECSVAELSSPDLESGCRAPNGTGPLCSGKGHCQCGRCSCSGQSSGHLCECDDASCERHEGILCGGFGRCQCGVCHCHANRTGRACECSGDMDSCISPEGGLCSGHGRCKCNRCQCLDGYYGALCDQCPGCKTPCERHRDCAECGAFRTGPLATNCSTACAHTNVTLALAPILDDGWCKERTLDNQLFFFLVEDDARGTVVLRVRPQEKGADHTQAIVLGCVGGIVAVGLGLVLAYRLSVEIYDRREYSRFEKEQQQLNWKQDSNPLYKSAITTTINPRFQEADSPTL
Summary of the method: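 Anti-FLAG plates coated 1 h at 4° C with FLAG-hMAdCAM-1 in PBS pH 7.4, 1% BSA, 1 mM Mn2+. Stably transfected K562 cells expressing human α4β7, labelled with CFDA-SE, adhered with compound 1 h at room temperature. After four washes, bound cells lysed in 0.1 M NaOH for fluorescence read-out.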

T1 sequence (P05556 21-798, one chain of several): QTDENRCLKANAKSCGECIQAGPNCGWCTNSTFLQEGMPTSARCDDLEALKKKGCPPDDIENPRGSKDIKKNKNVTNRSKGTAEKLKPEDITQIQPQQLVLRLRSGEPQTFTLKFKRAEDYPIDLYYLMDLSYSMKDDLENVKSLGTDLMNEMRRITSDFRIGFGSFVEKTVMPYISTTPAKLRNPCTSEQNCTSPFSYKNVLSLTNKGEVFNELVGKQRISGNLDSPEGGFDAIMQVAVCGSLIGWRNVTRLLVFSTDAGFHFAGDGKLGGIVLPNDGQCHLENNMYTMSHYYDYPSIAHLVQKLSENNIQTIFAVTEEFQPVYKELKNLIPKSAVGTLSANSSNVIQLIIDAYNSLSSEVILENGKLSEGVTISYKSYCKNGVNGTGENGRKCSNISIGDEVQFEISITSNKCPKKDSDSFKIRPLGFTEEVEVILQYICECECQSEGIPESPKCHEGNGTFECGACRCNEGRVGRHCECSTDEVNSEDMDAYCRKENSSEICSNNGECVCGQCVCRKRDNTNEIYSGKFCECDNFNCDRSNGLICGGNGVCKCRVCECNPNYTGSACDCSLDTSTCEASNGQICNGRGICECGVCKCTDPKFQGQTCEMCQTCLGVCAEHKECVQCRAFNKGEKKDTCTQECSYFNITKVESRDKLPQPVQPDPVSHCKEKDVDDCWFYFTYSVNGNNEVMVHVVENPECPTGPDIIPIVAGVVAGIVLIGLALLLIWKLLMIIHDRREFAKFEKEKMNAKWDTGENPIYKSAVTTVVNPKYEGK

COc1cnn(C)c(=O)c1-c1ccc(C[C@H](NC(=O)c2cc(F)ccc2Cl)C(=O)OCCO)cc1 [Cpd 2]
IC50 (α4β1): > 5 µM
% Inhibition of Epithelial Damage Score (TNBS induced colitis): 10.25%
% Inhibition of Total Macroscopic Score (TNBS induced colitis): −0.885%

COc1cnn(C)c(=O)c1-c1ccc(C[C@H](NC(=O)OC2CCCCC2)C(=O)O)cc1 [Cpd 208]
IC50 (α4β1): > 5 µM
IC50 (human α4β7 integrin): 2.76 µM

COc1cnn(C)c(=O)c1-c1ccc(C[C@H](NC(=O)O[C@H](C)c2ccccc2)C(=O)O)cc1 [Cpd 209]
IC50 (α4β1): > 5 µM
IC50 (human α4β7 integrin): 3.14 µM

COc1cnn(CCN2CCOCC2)c(=O)c1-c1ccc(C[C@H](NC(=O)[C@H](N)C(C)C)C(=O)O)cc1 [Cpd 210]
IC50 (α4β1): > 5 µM
IC50 (human α4β7 integrin): 4.65 µM

COc1cnn(C)c(=O)c1-c1ccc(CC(NC(=O)C(C(C)C)n2c(C)cc(C(=O)c3ccccc3)c2C)C(=O)O)cc1 (stereo not shown) [Cpd 211, 2-[2-(3-Benzoyl-2,5-dimethyl-pyrrol-1-yl)-3-methyl-butyrylamino]-[4-(5-methoxy-2-methyl-3-oxo-2,3-dihydro-pyridazin-4-yl)-phenyl]-propionic acid]
IC50 (α4β1): > 5 µM
IC50 (human α4β7 integrin): 0.529 µM

COc1cnn(CCO)c(=O)c1-c1ccc(C[C@H](NC(=O)OC(C)(C)C)C(=O)OCCO)cc1 [Cpd 212]
IC50 (α4β1): > 5 µM
IC50 (human α4β7 integrin): > 5 µM

COc1cnn(C)c(=O)c1-c1ccc(CC(NC(=O)C(C(C)C)n2c(C)ccc2C)C(=O)O)cc1 (stereo not shown) [Cpd 213]
IC50 (α4β1): 2.88 µM
IC50 (human α4β7 integrin): 0.264 µM

COc1cnn(C)c(=O)c1-c1ccc(CC(NC(=O)C(C(C)C)n2c(C)ccc2C)C(=O)O)cc1 (stereo not shown) [Cpd 214]
IC50 (α4β1): 1.07 µM
IC50 (human α4β7 integrin): 0.023 µM

COc1cnn(C)c(=O)c1-c1ccc(CC(NC(=O)C(C(C)C)n2c(C)ccc2C)C(=O)O)cc1 (stereo not shown) [Cpd 215]
IC50 (α4β1): > 5 µM
IC50 (human α4β7 integrin): 0.305 µM

COc1cnn(C)c(=O)c1-c1ccc(C[C@H](NC(=O)C2(O)CC2)C(=O)O)cc1 [Cpd 217]
IC50 (α4β1): > 5 µM
IC50 (human α4β7 integrin): 0.64 µM

COc1cnn(C)c(=O)c1-c1ccc(C[C@H](NC(=O)C(C)(C)NC(C)C)C(=O)O)cc1 [Cpd 218]
IC50 (α4β1): > 5 µM
IC50 (human α4β7 integrin): 0.239 µM

COc1cnn(C)c(=O)c1-c1ccc(C[C@H](NC(=O)NC2CCCCC2)C(=O)O)cc1 [Cpd 219]
IC50 (α4β1): > 5 µM
IC50 (human α4β7 integrin): 0.852 µM

COc1cnn(C)c(=O)c1-c1ccc(C[C@H](NC(=O)C(C)(C)NC2CCC3(CC2)OCCO3)C(=O)O)cc1 [Cpd 220]
IC50 (α4β1): > 5 µM
IC50 (human α4β7 integrin): 0.263 µM

CNC(C)(C)C(=O)N[C@@H](Cc1ccc(-c2c(OC)cnn(C)c2=O)cc1)C(=O)O [Cpd 221]
IC50 (α4β1): > 5 µM
IC50 (human α4β7 integrin): 0.38 µM

COc1cnn(C)c(=O)c1-c1ccc(C[C@H](NC(=O)C2(NC(=O)OC(C)(C)C)CCCCC2)C(=O)O)cc1 [Cpd 222]
IC50 (α4β1): > 5 µM
IC50 (human α4β7 integrin): 0.401 µM

COc1cnn(C)c(=O)c1-c1ccc(C[C@H](NC(=O)C2(NC(=O)OC(C)(C)C)CCCC2)C(=O)O)cc1 [Cpd 223]
IC50 (α4β1): > 5 µM
IC50 (human α4β7 integrin): 0.115 µM

COc1cnn(C)c(=O)c1-c1ccc(C[C@H](NC(=O)C2(NC3CCC4(CC3)OCCO4)CC2)C(=O)O)cc1 [Cpd 224]
IC50 (α4β1): > 5 µM
IC50 (human α4β7 integrin): 0.014 µM

COc1cnn(C)c(=O)c1-c1ccc(C[C@H](NC(=O)C2(NC3CCCC3)CC2)C(=O)O)cc1 [Cpd 225]
IC50 (α4β1): 0.472 µM
IC50 (human α4β7 integrin): 0.013 µM

COc1cnn(C)c(=O)c1-c1ccc(C[C@H](NC(=O)C2(NC(C)=O)CC2)C(=O)O)cc1 [Cpd 227]
IC50 (α4β1): > 5 µM
IC50 (human α4β7 integrin): 0.219 µM

COc1cnn(CC(C)=O)c(=O)c1-c1ccc(C[C@H](NC(=O)c2c(Cl)cccc2Cl)C(=O)O)cc1 [Cpd 228]
IC50 (α4β1): 0.535 µM
IC50 (human α4β7 integrin): 0.006 µM

COc1cnn(C)c(=O)c1-c1ccc(C[C@H](NC(=O)C(C)(C)NC(N)=O)C(=O)O)cc1 [Cpd 229]
IC50 (α4β1): > 5 µM
IC50 (human α4β7 integrin): 0.089 µM
